Reference: PubChem BioAssay AID1259407 (Chemical Carcinogenesis Research Information System (CCRIS), 2018)
Active and inactive are the calls of the source. How the calls were made is not given here.

Test system: CCRIS mutagenicity, Ames/micronucleus/aberration tests
Assay: CCRIS mutagenicity studies
[1] = Test System: AMES SALMONELLA TYPHIMURIUM, Strain/Indicator: TA97, Metabolic Activation: NONE, Method: PREINCUBATION
[2] = Test System: AMES SALMONELLA TYPHIMURIUM, Strain/Indicator: TA98, Metabolic Activation: HAMSTER, LIVER, S-9, AROCLOR 1254 (10%), Method: PREINCUBATION
[3] = Test System: AMES SALMONELLA TYPHIMURIUM, Strain/Indicator: TA98, Metabolic Activation: HAMSTER, LIVER, S-9, AROCLOR 1254 (30%), Method: PREINCUBATION
[4] = Test System: AMES SALMONELLA TYPHIMURIUM, Strain/Indicator: TA98, Metabolic Activation: NONE, Method: PREINCUBATION
[5] = Test System: AMES SALMONELLA TYPHIMURIUM, Strain/Indicator: TA100, Metabolic Activation: NONE, Method: PREINCUBATION
[6] = Test System: AMES SALMONELLA TYPHIMURIUM, Strain/Indicator: TA1535, Metabolic Activation: NONE, Method: PREINCUBATION

Measured: mutagenic call

Clc1ccc2ccccc2c1
inactive: Test System: AMES SALMONELLA TYPHIMURIUM, Strain/Indicator: TA97, Metabolic Activation: HAMSTER, LIVER, S-9, AROCLOR 1254 (10 OR 30%), Method: PREINCUBATION inactive; negative | [1] inactive; negative | Test System: AMES SALMONELLA TYPHIMURIUM, Strain/Indicator: TA97, Metabolic Activation: RAT, LIVER, S-9, AROCLOR 1254 (10 OR 30%), Method: PREINCUBATION inactive; negative | [2] inactive; negative | [3] inactive; negative | [4] inactive; negative | Test System: AMES SALMONELLA TYPHIMURIUM, Strain/Indicator: TA98, Metabolic Activation: RAT, LIVER, S-9, AROCLOR 1254 (10 OR 30%), Method: PREINCUBATION inactive; negative | Test System: AMES SALMONELLA TYPHIMURIUM, Strain/Indicator: TA100, Metabolic Activation: HAMSTER, LIVER, S-9, AROCLOR 1254 (10 OR 30%), Method: PREINCUBATION inactive; negative | [5] inactive; negative | Test System: AMES SALMONELLA TYPHIMURIUM, Strain/Indicator: TA100, Metabolic Activation: RAT, LIVER, S-9, AROCLOR 1254 (10 OR 30%), Method: PREINCUBATION inactive; negative | Test System: AMES SALMONELLA TYPHIMURIUM, Strain/Indicator: TA1535, Metabolic Activation: HAMSTER, LIVER, S-9, AROCLOR 1254 (10 OR 30%), Method: PREINCUBATION inactive; negative | [6] inactive; negative | Test System: AMES SALMONELLA TYPHIMURIUM, Strain/Indicator: TA1535, Metabolic Activation: RAT, LIVER, S-9, AROCLOR 1254 (10 OR 30%), Method: PREINCUBATION inactive; negative

O=C(O)C(=O)Nc1cccc(-c2nn[nH]n2)c1
inactive: Test System: AMES SALMONELLA TYPHIMURIUM, Strain/Indicator: TA98, Metabolic Activation: NONE, Method: STANDARD PLATE inactive; negative | Test System: AMES SALMONELLA TYPHIMURIUM, Strain/Indicator: TA98, Metabolic Activation: RAT, LIVER, S-9, PHENOBARBITAL AND 5,6-BENZOFLAVONE, Method: STANDARD PLATE inactive; negative | Test System: AMES SALMONELLA TYPHIMURIUM, Strain/Indicator: TA100, Metabolic Activation: NONE, Method: STANDARD PLATE inactive; negative | Test System: AMES SALMONELLA TYPHIMURIUM, Strain/Indicator: TA100, Metabolic Activation: RAT, LIVER, S-9, PHENOBARBITAL AND 5,6-BENZOFLAVONE, Method: STANDARD PLATE inactive; negative | Test System: AMES SALMONELLA TYPHIMURIUM, Strain/Indicator: TA1535, Metabolic Activation: NONE, Method: STANDARD PLATE inactive; negative | Test System: AMES SALMONELLA TYPHIMURIUM, Strain/Indicator: TA1535, Metabolic Activation: RAT, LIVER, S-9, PHENOBARBITAL AND 5,6-BENZOFLAVONE, Method: STANDARD PLATE inactive; negative | Test System: AMES SALMONELLA TYPHIMURIUM, Strain/Indicator: TA1537, Metabolic Activation: NONE, Method: STANDARD PLATE inactive; negative | Test System: AMES SALMONELLA TYPHIMURIUM, Strain/Indicator: TA1537, Metabolic Activation: RAT, LIVER, S-9, PHENOBARBITAL AND 5,6-BENZOFLAVONE, Method: STANDARD PLATE inactive; negative | Test System: E. COLI, Strain/Indicator: WP2 UVRA, Metabolic Activation: NONE, Method: STANDARD PLATE inactive; negative

COC(=O)c1ccc(C)cc1
inactive: Test System: AMES SALMONELLA TYPHIMURIUM, Strain/Indicator: TA97, Metabolic Activation: HAMSTER, LIVER, S-9, AROCLOR 1254 (10%), Method: PREINCUBATION inactive; negative | Test System: AMES SALMONELLA TYPHIMURIUM, Strain/Indicator: TA97, Metabolic Activation: HAMSTER, LIVER, S-9, AROCLOR 1254 (30%), Method: PREINCUBATION inactive; negative | [1] inactive; negative | Test System: AMES SALMONELLA TYPHIMURIUM, Strain/Indicator: TA97, Metabolic Activation: RAT, LIVER, S-9, AROCLOR 1254 (10%), Method: PREINCUBATION inactive; negative | Test System: AMES SALMONELLA TYPHIMURIUM, Strain/Indicator: TA97, Metabolic Activation: RAT, LIVER, S-9, AROCLOR 1254 (30%), Method: PREINCUBATION inactive; negative | [2] inactive; negative | [3] inactive; negative | [4] inactive; negative | Test System: AMES SALMONELLA TYPHIMURIUM, Strain/Indicator: TA98, Metabolic Activation: RAT, LIVER, S-9, AROCLOR 1254 (10%), Method: PREINCUBATION inactive; negative | Test System: AMES SALMONELLA TYPHIMURIUM, Strain/Indicator: TA98, Metabolic Activation: RAT, LIVER, S-9, AROCLOR 1254 (30%), Method: PREINCUBATION inactive; negative | Test System: AMES SALMONELLA TYPHIMURIUM, Strain/Indicator: TA100, Metabolic Activation: HAMSTER, LIVER, S-9, AROCLOR 1254 (10%), Method: PREINCUBATION inactive; negative | Test System: AMES SALMONELLA TYPHIMURIUM, Strain/Indicator: TA100, Metabolic Activation: HAMSTER, LIVER, S-9, AROCLOR 1254 (30%), Method: PREINCUBATION inactive; negative | [5] inactive; negative | Test System: AMES SALMONELLA TYPHIMURIUM, Strain/Indicator: TA100, Metabolic Activation: RAT, LIVER, S-9, AROCLOR 1254 (10%), Method: PREINCUBATION inactive; negative | Test System: AMES SALMONELLA TYPHIMURIUM, Strain/Indicator: TA100, Metabolic Activation: RAT, LIVER, S-9, AROCLOR 1254 (30%), Method: PREINCUBATION inactive; negative | Test System: AMES SALMONELLA TYPHIMURIUM, Strain/Indicator: TA1535, Metabolic Activation: HAMSTER, LIVER, S-9, AROCLOR 1254 (10%), Method: PREINCUBATION inactive; negative | Test System: AMES SALMONELLA TYPHIMURIUM, Strain/Indicator: TA1535, Metabolic Activation: HAMSTER, LIVER, S-9, AROCLOR 1254 (30%), Method: PREINCUBATION inactive; negative | [6] inactive; negative | Test System: AMES SALMONELLA TYPHIMURIUM, Strain/Indicator: TA1535, Metabolic Activation: RAT, LIVER, S-9, AROCLOR 1254 (10%), Method: PREINCUBATION inactive; negative | Test System: AMES SALMONELLA TYPHIMURIUM, Strain/Indicator: TA1535, Metabolic Activation: RAT, LIVER, S-9, AROCLOR 1254 (30%), Method: PREINCUBATION inactive; negative | Test System: AMES SALMONELLA TYPHIMURIUM, Strain/Indicator: TA1537, Metabolic Activation: HAMSTER, LIVER, S-9, AROCLOR 1254 (30%), Method: PREINCUBATION inactive; negative | Test System: AMES SALMONELLA TYPHIMURIUM, Strain/Indicator: TA1537, Metabolic Activation: NONE, Method: PREINCUBATION inactive; negative | Test System: AMES SALMONELLA TYPHIMURIUM, Strain/Indicator: TA1537, Metabolic Activation: RAT, LIVER, S-9, AROCLOR 1254 (30%), Method: PREINCUBATION inactive; negative
